The source of these data is patent US10710984B2, “N-[(Pyrimidinylamino)propanyl]-and N-[(Pyridinylamino)-propanyl]arylcarboxamides” (Boehringer Ingelheim International GmbH, priority 2016, dated 2020).

The chromatographic logP is lipophilicity estimated from chromatographic retention.

In one series the target is T1, human orexin 2 receptor (Homo sapiens, UniProt O43614).
T1 construct: CHO-K1 cells stably expressing the full-length human orexin 2 receptor and the aequorin photoprotein; expressed in transfected cells; host or cells: CHO-K1 (CHO-K1/hOx2)
T1 sequence (O43614 1-444): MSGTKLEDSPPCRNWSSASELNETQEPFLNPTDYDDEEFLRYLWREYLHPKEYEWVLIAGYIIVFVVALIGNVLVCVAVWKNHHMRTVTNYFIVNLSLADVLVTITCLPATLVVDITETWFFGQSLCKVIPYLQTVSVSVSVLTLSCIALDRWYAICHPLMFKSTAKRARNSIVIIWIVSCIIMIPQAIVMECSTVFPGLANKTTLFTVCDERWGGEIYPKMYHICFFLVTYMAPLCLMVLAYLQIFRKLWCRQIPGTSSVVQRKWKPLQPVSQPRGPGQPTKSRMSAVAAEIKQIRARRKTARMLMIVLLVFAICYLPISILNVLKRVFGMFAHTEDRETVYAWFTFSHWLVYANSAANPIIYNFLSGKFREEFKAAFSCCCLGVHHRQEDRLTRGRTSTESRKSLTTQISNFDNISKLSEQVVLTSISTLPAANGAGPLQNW
Put plainly: Assay B: in vitro testing of OX2R potency, OX2R IP1. It counts as cell-based. The following applies: Table 4a; 0.5 nM Orexin A. The source says: Activation of the orexin receptors expressed in cell lines results in an increase in intracellular IP3 concentration. IP1, a downstream metabolite of IP3, accumulates in cells following receptor activation and is stable in the presence of LiCl. Using Homogeneous Time-Resolved Fluorescence technology with Lumi4-Tb cryptate (commercially available from Cisbio Bioassay) and a suitable fluorescence plate reader. […] Chem. Genomics 2009, 3, 22-32. This technique is used to characterize pharmacological modification of the orexin receptors.
B. In Vitro Testing of OX2R Potency: OX2R IP1
IP1 measurements are performed in CHO-K1 cells stably expressing the full-length human orexin 2 receptor and the aequorin photoprotein. Cells are cultivated in Ham's nutrient mixture F12 medium with 10% fetal calf serum, in a 37° C., 95% humidity and 5% CO2 incubator. The CHO-K1/hOx2 cell mass is expanded to larger cell numbers. The cells are obtained as frozen cells in cryo-vials and stored until use at −150° C. The viability of the cells after thawing is >90%. In preparation for the assay, 24 hours before the assay, the cells are thawed at 37° C. and immediately diluted with cell culture medium. After centrifugation, the cell pellet is re-suspended in medium and then distributed into the assay plates with a density of 5000 cells/25 μL per well. The plates are incubated for one hour at room temperature to reduce edge effects before they are incubated for 24 hours at 37° C./5% CO2. Compounds are prepared by a 8-point serial dilution in DMSO and a final dilution step into assay buffer (HBSS with 20 mM HEPES, 0.1% BSA and 50 mM LiCl, pH 7.4) to ensure a final DMSO concentration of 1% in the assay. On the day of the assay, cells in the plate are washed twice with 60 μL assay buffer (20 μL buffer remained in the wells after washing), followed by adding 5 μL per well of compounds diluted in assay buffer. After 15 minutes of incubation at room temperature 5 μL per well of Orexin A peptide (final concentration: 0.5 nM) dissolved in assay buffer is added to the assay plate. The assay plate is incubated for 60 minutes at 37° C. Then 5 μL per well of Anti-IP1-Cryptate Tb solution and 5 μL per well of IP1-d2 dilution are added to all well of the plate and the plate is incubated for a further 60 minutes light protected at room temperature. The emission at 615 nm and 665 nm (Excitation wavelength: 320 nm) are measured using an EnVision reader (PerkinElmer). The ratio between the emission at 665 nm and 615 is calculated by the reader.
8-point four parametric non-linear curve fitting and determination of IC50 values and Hill slopes is performed using a regular analysis software e.g. AssayExplorer (Accelrys). In order to establish an agonist concentration independent parameter, Kb values are calculated using the following equation: IC50/((2+(A/EC50)^n)^1/n−1) (with A=concentration agonist, EC50=EC50 agonist, n=Hill slope agonist) (see P. Leff, I. G. Dougall, Trends Pharmacol. Sci. 1993, 14(4), 110-112).
Kb values from Assay A (OX1R) and Assay B (OX2R) can then provide a selectivity ratio which is independent of the agonist (Orexin A) concentration.

In another series the target is T2, human Orexin 1 receptor (Homo sapiens, UniProt O43613).
T2 construct: CHO-K1 cells stably expressing the full-length human Orexin 1 receptor and the aequorin photoprotein; expressed in transfected cells; host or cells: CHO-K1 (CHO-K1/hOx1)
T2 sequence (O43613 1-425): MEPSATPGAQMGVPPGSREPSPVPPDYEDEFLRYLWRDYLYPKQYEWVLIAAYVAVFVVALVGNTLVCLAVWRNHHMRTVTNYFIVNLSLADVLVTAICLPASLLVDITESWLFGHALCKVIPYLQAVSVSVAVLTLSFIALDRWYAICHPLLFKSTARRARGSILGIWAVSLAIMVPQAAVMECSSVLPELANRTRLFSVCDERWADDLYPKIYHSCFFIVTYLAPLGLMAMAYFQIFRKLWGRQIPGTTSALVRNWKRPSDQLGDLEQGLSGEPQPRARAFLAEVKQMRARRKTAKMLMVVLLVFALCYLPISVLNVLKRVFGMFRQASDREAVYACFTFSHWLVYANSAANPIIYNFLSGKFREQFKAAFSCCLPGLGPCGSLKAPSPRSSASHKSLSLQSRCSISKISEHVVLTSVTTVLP
Put plainly: Assay A: in vitro testing of OX1R potency, OX1R IP1. In kind it is cell-based. The following applies: for Kb: Table 4a, 50 nM Orexin A.

A short description of series [1]: Assay D: assessment of log P. It counts as physicochemical. The procedure:
The assay was performed following the description by S. F. Donovan and M. C. Pescatore in J. Chromatogr. A 952 (2002) 47-61.

`CC[C@@H](CNc1ccc(Cl)cn1)N(C)C(=O)c1cc(C)ccc1-n1nccn1` [Ex 1 in WO2016/ 034882, reference compound] registered a Kb at human orexin 2 receptor of 43.2 nM.

In the case of `CC[C@@H](CNc1ncc(C(F)(F)F)cn1)N(C)C(=O)c1cc(Cl)ccc1-n1nccn1` [Ex 39 in WO2016/ 034882, reference compound], on human orexin 2 receptor, the Kb worked out at 81.5 nM.

The compound `CC[C@@H](CNc1ccc(C(F)(F)F)cn1)N(C)C(=O)c1cc(Cl)ccc1-n1nccn1` [Ex 42 in WO2016/ 034882, reference compound] registered a Kb on human orexin 2 receptor of 36.2 nM.

`CC[C@@H](CNc1ccc(C(F)(F)F)cn1)N(CC)C(=O)c1nc(C)ccc1-n1nccn1` [Ex 71 in WO2016/ 034882, reference compound]: the Kb on human Orexin 1 receptor was determined as 0.03 nM; at human orexin 2 receptor, 27.3 nM.

At human orexin 2 receptor, `CC[C@@H](CNc1ncc(C(F)(F)F)cn1)N(CC)C(=O)c1nc(C)ccc1-n1nccn1` [Ex 73 in WO2016/ 034882, reference compound] displayed a Kb of 148 nM.

In the case of `CC[C@@H](CNc1ncc(C(F)(F)F)cn1)N(C)C(=O)c1nc(C)ccc1-c1ncccn1` [Ex 84 in WO2016/ 034882, reference compound], on human Orexin 1 receptor, the Kb was 2.33 nM.

Turning to `CC[C@@H](CNc1ncc(C(F)(F)F)cn1)N(C)C(=O)c1c(F)cccc1-n1nccn1` [Ex 91 in WO2016/ 034882, reference compound], the Kb on human Orexin 1 receptor was 3.96 nM.

On to `CCN(C(=O)c1c(-n2nccn2)ccc(C)c1F)[C@@H](C)CNc1ncc(C(F)(F)F)cn1` [Example 1], for which the Kb is 0.041 nM on human Orexin 1 receptor and 21.8 nM on human orexin 2 receptor. Further, the chromatographic logP in series [1] lay in the range of 2 to 4.

`CCN(C(=O)c1ccc(C)cc1-n1nccn1)[C@@H](C)CNc1ncc(C(F)(F)F)cn1` [Example 5]: the Kb at human Orexin 1 receptor is 0.012 nM; at human orexin 2 receptor it was 21.1 nM. Also, in series [1], the chromatographic logP was 2 to 4.

`CCN(C(=O)c1cc(C)ccc1-n1nccn1)[C@@H](C)CN(C)c1ccc(Cl)cn1` [Example 9]: at human Orexin 1 receptor, the “OX2R Kb/OX1R Kb” value is reported as 909 and the Kb was found to be 0.0053 nM. The same compound came in with a Kb on human orexin 2 receptor of 4.79 nM.

`CCN(C(=O)c1cc(C)ccc1-n1nccn1)[C@@H](C)CNc1ccc(Cl)cn1` [Example 10]: the Kb on human Orexin 1 receptor came to 0.014 nM; on human orexin 2 receptor, 5.57 nM.

As to `CCN(C(=O)c1cccc(F)c1-c1ncccn1)[C@@H](C)CNc1ccc(C(F)(F)F)cn1` [Example 11], the Kb at human Orexin 1 receptor was 0.015 nM; at human orexin 2 receptor, 3.15 nM. Further, in series [1], the chromatographic logP was in the range of 2 to 4.

Consider `CCN(C(=O)c1cccc(F)c1-c1ncccn1)[C@@H](C)CNc1ccc(F)c(C(F)(F)F)n1` [Example 12], for which the Kb on human Orexin 1 receptor stood at 0.019 nM; on human orexin 2 receptor, 4.15 nM. Also, the chromatographic logP in series [1] fell in the range of 2 to 4.

On to `CCN(C(=O)c1cc(F)ccc1-c1ncccn1)[C@@H](C)CNc1ncc(C(F)(F)F)cc1F` [Example 13], for which the Kb at human Orexin 1 receptor is 0.012 nM; at human orexin 2 receptor, 5.16 nM. In series [1], this compound came in with a chromatographic logP of 2 to 4.

On to `CCN(C(=O)c1cccc(F)c1-n1nccn1)[C@@H](C)CNc1ccc(Cl)cn1` [Example 17], for which the results for the Kb on human Orexin 1 receptor and at human orexin 2 receptor were 0.043 nM and 11.4 nM, respectively.

Turning to `CCN(C(=O)c1cccc(F)c1-n1nccn1)[C@@H](C)CNc1ccc(F)c(C(F)(F)F)n1` [Example 18], the Kb stood at 0.078 nM on human Orexin 1 receptor and 16.3 nM at human orexin 2 receptor. Also, the chromatographic logP in series [1] lay in the range of 2 to 4.
